From patent US20090181467A1, “Method of assessing and of activating the alternative cellular energy (ACE) pathway in the therapy of diseases” (MI Hope Inc. dba Progressive University, priority 2008, published 2009)

Columns and labels:
[1] = test system: active skin lesions caused by herpes simplex virus (HSV), herpes zoster virus (HZV) and human papillomavirus (HPV) infections; conditions: cited from earlier work
[2] = test system: alternative cellular energy (ACE) pathway; test: neutral red dye / UV-A light activation of the ACE pathway in patients; format: in vivo, human
Source text: A series of patients have been seen who have a history of recurrent herpes simplex virus (HSV) skin lesions, or a past history of herpes zoster virus (HZV) infections, but with no actual skin lesions present at the time of examination. Another series of patients were recruited from among the patients attending a chiropractic clinic for various pain or impaired mobility related conditions. Under the direction of the inventor, both groups of patients were asked to volunteer for a study on assessing and, if necessary, activating the ACE pathway. Q-tips were used to sample various areas of their skin as well as the mucosal (buccal) surface of their mouths. Urine samples were also collected. The materials were checked for direct fluorescence using a 15W ultraviolet-A light emitting spiral fluorescent light (Halco, ProLume light). The swabs were then touched against other Q-tips that were soaked in an approximately 1 mg/ml solution of neutral red. Several drops of the neutral red solution were added to the urine. The Q-tips and urine were again examined under UV-A light for discernable fluorescence compared to Q-tips exposed only to neutral red. […] Clinic staff similarly tested and gave negative results.
Skin areas of the patients from which fluorescing material were obtained were then wiped with absorbent cloth. These cloth was placed over areas of skin from which the material was collected, stained with neutral red, and exposed to UV-A light from spiral fluorescent bulbs. Under UV illumination, fluorescence developed in areas of skin beneath and adjacent to the stained cloth. The fluorescence lasted for varying periods of time extending in one patient to 3 hours, but generally less than 1 hour. […] Similarly, in most patients there was no discernable fluorescing material when the patients were seen the next day. […] A person commented upon the relief they experienced from a chronically painful shoulder that had resulted from injuries received years earlier in a car accident. Another patient's personality transformed from expressions of anger and hostility to one of laughter and smiles.

**Q.** Which “healing of active skin lesions” value [1] does the source give for `Cc1cc2nc3ccc(N(C)C)cc3nc2cc1N.Cl` [neutral red] here?
**A.** successfully used in expediting the healing

**Q.** What about the sense of wellness ([2]; all patients, at the end of period of UV illumination) of the same molecule?
**A.** much improved sense of wellness

**Q.** And the “severity of the pain and restricted mobility symptoms” value ([2]; chiropractic patients, following day)?
**A.** marked reductions

**Q.** What about the “persistence of benefits after a therapy session” value ([2]; no additional intervention) of the same molecule?
**A.** 2-3 weeks

**Q.** What about the vitality ([2]; patients with prior history of recurrent HSV infections, immediately after therapy session and next day) of the same molecule?
**A.** improved vitality
